In PubChem BioAssay (NCI):
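48-hour exposure; five concentrations; linearly interpolated endpoints. TGI denotes the concentration required for complete inhibition of growth.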

Columns and labels:
Assay in all cases: NCI anticancer screen, dose series, 48 h
[1] = tested on: SF-295 CNS
[2] = tested on: HOP-62 NSCLC
[3] = tested on: HT29 colon
[4] = tested on: EKVX NSCLC
[5] = tested on: DMS 273 small cell lung
[6] = tested on: NCI-H23 lung
[7] = tested on: SNB-78 CNS
[8] = tested on: CAKI-1 renal
[9] = tested on: UACC-257 melanoma
[10] = tested on: RPMI-8226 leukemia
[11] = tested on: OVCAR-3 ovarian
[12] = tested on: MALME-3M melanoma
[13] = tested on: NCI-H460 lung
[14] = tested on: SF-268 CNS
[15] = tested on: SK-OV-3 ovarian
[16] = tested on: SF-539 CNS
[17] = tested on: MOLT-4 leukemia
[18] = tested on: UACC-62 melanoma
[19] = tested on: DMS 114 small cell lung
[20] = tested on: ACHN renal
[21] = tested on: COLO 205 colon
[22] = tested on: SK-MEL-2 melanoma
[23] = tested on: SNB-75 CNS
[24] = tested on: K-562 leukemia
[25] = tested on: XF 498 CNS
[26] = tested on: A549 NSCLC
[27] = tested on: OVCAR-5 ovarian
[28] = tested on: SR leukemia
[29] = tested on: SN12C renal
[30] = tested on: A498 renal
[31] = tested on: HL-60(TB) leukemia
[32] = tested on: SNB-19 CNS
[33] = tested on: HCT-116 colon
[34] = tested on: KM12 colon
[35] = tested on: M14 melanoma
[36] = tested on: LXFL 529 NSCLC
[37] = tested on: RXF 393 renal
[38] = tested on: CCRF-CEM leukemia
[39] = tested on: OVCAR-4 ovarian
[40] = tested on: SW-620 colon
[41] = tested on: KM20L2 colon
[42] = tested on: M19-MEL melanoma
[43] = tested on: OVCAR-8 ovarian
[44] = tested on: UO-31 renal
[45] = tested on: SK-MEL-5 melanoma
[46] = tested on: NCI-H522 lung
[47] = tested on: LOX IMVI melanoma
[48] = tested on: 786-0 renal
[49] = tested on: SK-MEL-28 melanoma
[50] = tested on: HCT-15 colon
[51] = tested on: U251 CNS
[52] = tested on: TK-10 renal
[53] = tested on: IGROV1 ovarian
[54] = tested on: DLD-1 colon
[55] = tested on: HOP-92 NSCLC
[56] = tested on: NCI-H226 lung
[57] = tested on: HCC-2998 colon

In the case of `CC(=O)OCC(OC(C)=O)C(OC(C)=O)C(OC(C)=O)C(=O)CNn1c(-c2ccc(C)cc2)nc2ccccc2c1=O` (centres undefined), the TGI [1] is reported as > 100 µM, the TGI [2] is reported as > 100 µM and the TGI [3] is reported as > 100 µM. For the same compound, the TGI [4] was > 100 µM, the TGI [5] was > 100 µM and the TGI [6] was > 100 µM. The TGI [7] was > 100 µM, the TGI [8] was > 100 µM and the TGI [9] was > 100 µM. For the same compound, the TGI [10] was > 100 µM, the TGI [11] was > 100 µM and the TGI [12] was > 100 µM. For the same compound, the TGI [13] was > 100 µM, the TGI [14] was > 100 µM and the TGI [15] was > 100 µM. For the same compound, the TGI [16] was > 100 µM, the TGI [17] was > 100 µM and the TGI [18] was > 100 µM. The TGI [19] was > 100 µM, the TGI [20] was > 100 µM and the TGI [21] was > 100 µM. For the same compound, the TGI [22] was > 100 µM, the TGI [23] was > 100 µM and the TGI [24] was > 100 µM. The TGI [25] was > 100 µM, the TGI [26] was > 100 µM and the TGI [27] was > 100 µM. For the same compound, the TGI [28] was > 100 µM, the TGI [29] was > 100 µM and the TGI [30] was > 100 µM. The TGI [31] was > 100 µM, the TGI [32] was > 100 µM and the TGI [33] was > 100 µM. The TGI [34] was > 100 µM, the TGI [35] was > 100 µM and the TGI [36] was > 100 µM. The TGI [37] was > 100 µM, the TGI [38] was > 100 µM and the TGI [39] was > 100 µM. For the same compound, the TGI [40] was > 100 µM, the TGI [41] was > 100 µM and the TGI [42] was > 100 µM. For the same compound, the TGI [43] was > 100 µM, the TGI [44] was > 100 µM and the TGI [45] was > 100 µM. For the same compound, the TGI [46] was > 100 µM, the TGI [47] was > 100 µM and the TGI [48] was > 100 µM. For the same compound, the TGI [49] was > 100 µM, the TGI [50] was > 100 µM and the TGI [51] was > 100 µM.
For `COc1cc(C2Oc3cc(-c4oc5cc(O)cc(O)c5c(=O)c4O)ccc3OC2CO)ccc1O` (centres undefined), the TGI [52] was 58.3 µM, the TGI [1] was 64.8 µM and the TGI [2] was > 80.4 µM. The TGI [3] was 69.7 µM, the TGI [5] was 31.2 µM and the TGI [6] was 34.9 µM. For the same compound, the TGI [7] was > 100 µM, the TGI [8] was > 73.2 µM and the TGI [9] was > 100 µM. For the same compound, the TGI [10] was > 56.4 µM, the TGI [11] was 54.8 µM and the TGI [53] was > 100 µM. For the same compound, the TGI [12] was 67 µM, the TGI [13] was 12.7 µM and the TGI [14] was > 57.2 µM. For the same compound, the TGI [15] was > 95.5 µM, the TGI [16] was 34.3 µM and the TGI [17] was > 38.9 µM. The TGI [18] was > 100 µM, the TGI [19] was > 100 µM and the TGI [20] was 29.1 µM. For the same compound, the TGI [21] was 75.3 µM, the TGI [22] was 32.6 µM and the TGI [23] was > 60.7 µM. The TGI [24] was > 100 µM, the TGI [25] was > 62.4 µM and the TGI [26] was > 100 µM. The TGI [28] was > 54.1 µM, the TGI [29] was > 95.2 µM and the TGI [30] was > 49.3 µM. The TGI [31] was > 64.5 µM, the TGI [32] was 81.7 µM and the TGI [33] was > 37.1 µM. For the same compound, the TGI [34] was > 100 µM, the TGI [35] was > 70.5 µM and the TGI [36] was > 100 µM. The TGI [37] was 6.02 µM, the TGI [54] was > 100 µM and the TGI [38] was > 100 µM. For the same compound, the TGI [39] was > 76.7 µM, the TGI [55] was 52 µM and the TGI [40] was > 100 µM. The TGI [42] was > 100 µM, the TGI [43] was > 100 µM and the TGI [44] was 6.81 µM. The TGI [45] was 96.5 µM, the TGI [46] was > 30 µM and the TGI [48] was 72.8 µM. The TGI [56] was 82.1 µM, the TGI [49] was 62.3 µM and the TGI [50] was > 100 µM. For the same compound, the TGI [51] was > 100 µM and the TGI [57] was > 78.9 µM.
